Measured values published in patent US8642622B2, “Piperidinyl compound as a modulator of chemokine receptor activity” (Bristol-Myers Squibb Company, priority 2010, dated 2014).

Molecular target: T1, CCR1 (Homo sapiens, UniProt P32246)
T1 construct: THP-1 monocytic leukemia cells are combined with 100 μg of LS WGA PS beads; endogenous in cells; host or cells: THP-1 monocytic leukemia cells
T1 sequence (P32246 1-355): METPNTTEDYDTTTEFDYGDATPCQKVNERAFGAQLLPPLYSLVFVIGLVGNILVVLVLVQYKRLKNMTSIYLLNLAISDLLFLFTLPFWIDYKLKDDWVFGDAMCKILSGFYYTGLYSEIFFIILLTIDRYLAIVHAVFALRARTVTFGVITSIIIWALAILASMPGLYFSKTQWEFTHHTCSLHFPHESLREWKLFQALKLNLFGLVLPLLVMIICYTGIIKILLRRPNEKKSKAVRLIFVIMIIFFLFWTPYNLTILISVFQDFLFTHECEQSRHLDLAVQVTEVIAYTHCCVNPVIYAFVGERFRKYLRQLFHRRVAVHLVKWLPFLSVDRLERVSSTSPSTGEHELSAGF
Assay: Human CCR1 THP-1 binding assay ([125I]MIP-1α competition)
Conditions: THP-1 cells
Method: For radioligand competition studies, a final concentration of 1×10^5 THP-1 monocytic leukemia cells are combined with 100 μg of LS WGA PS beads (Amersham, Cat.#: RPNQ 0260) in 40 μL of assay buffer (RPMI 1640 without phenol red, 50 mM HEPES, 5 mM MgCl2, 1 mM CaCl2, 0.1% BSA). The THP-1 cell/bead mixture was added to each well of a 384-well assay plate (PerkinElmer, Cat. #:6007899) containing test compound in 3-fold serial dilution, with final concentrations ranging from 8 μM to 0.14 nM. A final concentration of 0.1 nM [^125I]MIP-1α (PerkinElmer, Cat. # NEX298) in 20 μL assay buffer was added to the reaction. Unlabeled MIP-1α was added in excess to some wells to determine non-specific binding. Sealed assay plates were incubated at room temperature for 12 h then analyzed by LEADseeker™.
The competition data of the test compound over a range of concentrations is plotted as percentage inhibition of radioligand specifically bound in the absence of test compound (percent of total signal). After correcting for non-specific binding, IC50 values are determined. […] The Ki values are determined by application of the Cheng-Prusoff equation to the IC50 values, where Ki=IC50/(1+ligand concentration/Kd). […]

Structure (SMILES) | Ki [nM]
CC(C)[C@@H](NC(=O)[C@@H]1CCC(F)(F)C1)C(=O)N1CC[C@](O)(c2ccc(Cl)cc2)[C@@](C)(O)C1 [Compound I, (R)—N—((R)-1-((3S,4S)-4-(4-chlorophenyl)-3,4-dihydroxy-3-methylpiperidin-1-yl)-3-methyl-1-oxobutan-2-yl)-3,3-difluorocyclopentanecarboxamide] | 1.6
CC(C)COC(=O)N[C@@H](C(=O)N1CC[C@](O)(c2ccc(Cl)cc2)C(C)(C)C1)C(C)C [Example 1083] | 2.6
